Assay [1] has as its system guinea-pig tracheal ring preparations. As to the kind of experiment: Bronchospasmolytic activity in vitro (relaxation of tracheal rings). The settings on record: Cavia porcellus; method A.1, guinea-pig tracheal rings in vitro. The source says: 1. Bronchospasmolytic activity in vitro
The trachea is excised from freshly sacrificed guinea-pigs (Dunkin-Hatley (350-500 g) and transected in the transverse plane to give rings of tissue of ca. 3-5 mm deep. Individual rings are mounted vertically on stainless steel supports, one of which is fixed at the base of an organ bath, the other being attached to an isometric transducer. The rings are bathed in Krebs solution (composition […]: NaHCO3 25, NaCl 113, KCl 4.7, MgSO4.7H2) 1.2, KHhd 2PO4 1.2, CaCl2 2.5, Glucose 11.7) at 37° C. and gassed with O2 /CO2 (95:5, v/v). Rings prepared in this manner, preloaded with 1 g, generate spontaneous tone and, after a period of equilibration (45-60 min.), relax consistently on addition of spasmolytic drugs. Tension can be enhanced by addition of carbachol (10^-6 M) or histamine (10^-4 M). To ascertain spasmolytic activity, test substances are dissolved in physiological saline and added in increasing quantities to the organ bath at 10 min. intervals to provide a cumulative concentration-effect curve.
In the above test model compounds of formula I and their pharmaceutically acceptable acid addition salts produce concentrationrelated relaxation of guinea-pig tracheal ring preparations irrespective of the contractile agency at concentrations of from about 10^-7 to about 10^-5 M.

For assay [2], the system named is bombesin-induced bronchospasm. The assay can be described thus: Bronchodilator activity in vivo (reversal of bombesin-induced bronchospasm). The settings on record: Cavia porcellus, method A.2, intra. duodenally. Also noted: species or system Guinea pigs (Dunkin-Hartley). The protocol: 2. Bronchodilator activity in vivo
Guinea pigs (Dunkin-Hartley, .male., 400-600 g) are anesthetized with phenobarbital (100-mg/kg i.p.) and pentobarbital (30 mg/kg i.p.) and paralyzed with gallamine (10 mg/kg i.m.). Animals are ventilated via a tracheal cannula (10 ml/kg, 1Hz.). Blood pressure and heart rate are recorded at the carotid artery. Ventilation is monitored by a Fleisch flow transducer in lien with the inspiratory circuit. When making measurements of flow, coincident pressure changes in the thorax are monitored directly via an intrathoracic trochar, permitting display of differential pressure relative to the trachea. From this information resistance and compliance are calculated at each inspiration.
Continuous intravenous infusion of bombesin (50-100 ng/kg/min) induces sustained bronchospasm. Capacity of test-substance to reverse response when administered intra-duodenally via a 12 gauge metal needle fixed by a purse string ligature into the peripheral end of the transected duodenum serves as a measure of efficacy in reversing established bronchospasm.
The bronchodilator response is taken as the percentage reduction of the maximal response to bombesin, measured at regular intervals, up to 64 mins..

Assay [3] deals with PAF-induced lung eosinophil accumulation. The assay can be described thus: Inhibition of eosinophil accumulation (PAF-induced lung eosinophilia). Format: in vivo, Guinea-pigs (Dunkin-Hartley). The settings on record: Cavia porcellus, sc, 168 h, method C, over 7 days. As for the experimental part: EXAMPLE C: INHIBITION OF EOSINOPHIL ACCUMULATION
Guinea-pigs (Dunkin-Hartley 400-600 g) are injected intraperitoneally with 10 μg/kg of PAF, a procedure which produces lung eosinophilia.
Animals are sacrificed with pentobarbital (100 mg/kg i.p.) 24 hours later. The trachea is exposed and cannulated and the airway lumen washed by introduction and aspiration of 10 ml aliquots (x6) of buffered modified Tyrode solution (composition mM: NaHCO3 11.9, NaCl 136.9, KCl 2.7, Na2 HPO4, glucose 5.6, EDTA 19.8; protein % w/v=gelatin 0.1, BSA 0.5; pH to 7.4 by addition of 2N NaOH). Total fluid recovery generally exceeds 80%.
Cell suspensions are concentrated by low speed centrifugation (200 g for 10 mins.) and the resulting cell pellet is resuspended in 1 ml modified Tyrode solution. Total cell counts are effected in a haemocytometer by diluting 10 μl cell suspension in 90 μl Turks fluid. Differential cell counts are made from smears fixed in 100% methanol and stained with Leishman stain. At least 500 cells smear are counted at 1000 fold magnification to differentiate cell types.
Test compound is administered over 7 days at varying concentration in 1 mg/kg s.c. amounts with exposure to PAF occurring 5 days after commencement of test compound administration. […]

The test system of assay [4] is PAF-induced airways hyperreactivity. The assay can be described thus: Suppression of airways hyperreactivity, PAF-treated animals. It counts as in vivo, Guinea-pigs. The settings on record: Cavia porcellus, iv, method B. The protocol: Guinea-pigs are anesthetized and prepared for recording of lung function as described under example A.2. above. Intravenous injection of low dose bombesin (240 ng/kg) establishes airways sensitivity to spasmogens. Following infusion of PAF (platelet activating factor) over 1 hr.

Each structure is given as a SMILES string.

The term IC50 denotes the concentration needed to halve the response being measured. As usually defined, the ED50 is the midpoint of the dose-response relation. Regarding `COCCOc1cc(OCCOC)cc(-c2nc(C)cc3cc(OC)c(OC)cc23)c1` [Example 12, 3-methyl-6,7-dimethoxy-1-(3,5-dimethoxyethoxy-phenyl)-isoquinoline], inhibition in assay [1] was half-maximal at 0.3 µM (IC50). Further, the median effective dose (ED50) in assay [2] is ~2 mg/kg; in assay [3] it was < 2 mg/kg; in assay [4], < 1 mg/kg.

In assay [1], `Cn1c(=O)c2[nH]cnc2n(C)c1=O` [Theophylline, theophylline] returned an IC50 of 77 µM. Further, the median effective dose (ED50) in assay [2] stood at 11 mg/kg; in assay [3] it was 5 mg/kg; in assay [4], 5 mg/kg.

The values are drawn from patent US4980359A, “Isoquinoline derivatives and their use” (Sandoz Ltd., priority 1988, dated 1990).
